According to patent US4552965A, “2α, 3β, 4aβ, 8aα-Decahydro-3-(4-phenyl-1-piperidinyl)-2-naphthalenol” (University of California, priority 1984, dated 1985):

Test system: Torpedo californica electric organ synpatic vesicles
Test: Inhibition of ATP-dependent uptake of radioactive ACh by purified Torpedo electric organ synaptic vesicles in vitro
Format: biochemical
Conditions: for IC50: purified Torpedo vesicles, room temperature, approximately 30 minutes, neutral pH, approximately 5 mM ATP, 50 μM radioactive ACh, read-out: IC50 (inhibition of vesicular ACh uptake)
Experimental: For example, purified Torpedo californica electric organ synpatic vesicles uptake ACh in vitro in the presence of ATP. Such vesicles are incubated at room temperature for approximately 30 minutes in isosmotic buffer at neutral PH, the buffer containing approximately 5 mM ATP and 50 μM radioactive ACh, and the radioactivity accumulated by the washed vesicles is then measured by liquid scintillation spectroscopy. By varying the concentration of the compound to be tested to determine its inhibitory effect on ACh uptake, a dose response curve can be deduced including the IC50.

| SMILES | IC50 [µM] | concentration needed relative to DPPN for comparable blockade of vesicular uptake of ACh (relative to DPPN) | times more effective than AH 5183 in preventing ACh uptake by the vesicles (relative to AH 5183) |
| --- | --- | --- | --- |
| OC1CCCCC1N1CCC(c2ccccc2)CC1 (stereo not shown) [AH 5183, 2-(4-Phenylpiperidino)-cyclohexanol] | 40 | at least four | – |
| O[C@@H]1C[C@H]2CCCC[C@@H]2C[C@H]1N1CCC(c2ccccc2)CC1 (relative stereo) [DPPN, (2α, 3β, 4aβ, 8aα)-decahydro-3-(4-phenyl-1-piperidinyl)-2-naphthalenol] | 10 | – | approximately four |
